Values of other authors, collected in patent publication US20210319872A1, “DRUG AND DEVICE COMBINATION PRODUCTS WITH IMPROVED SAFETY AND EFFICACY PROFILES” (priority 2016, published 2021).
Where two headings read alike, the source gives them in different places. Values belong to the molecule of their own block, whether it stands above or below them.

Compound: Cc1nnc2n1-c1ccc(Cl)cc1C(c1ccccc1)=NC2 [Xanax (alprazolam)]
Cognitive disorder (in vivo): Neurologic: Cognitive disorder (28.8%), Confusion (1.5% to
Confusion (in vivo): Neurologic: Cognitive disorder (28.8%), Confusion (1.5% to
Constipation (in vivo): Gastrointestinal: Constipation (8.1% to 26.2%), Reduced salivation
Decrease in appetite (in vivo): Endocrine metabolic: Decrease in appetite (7.3% to 27.8%),
Fatigue (in vivo): Other: Fatigue (13.9% to 48.6%)
Increased appetite (in vivo): Increased appetite (7% to 32.7%), Weight increase (2.7% to 27.2%)
Memory impairment (in vivo): 40.1%), Lightheadedness (20.8%), Memory impairment (15.4% to
Reduced libido (in vivo): Reproductive: Reduced libido (6% to 14.4%)
Reduced salivation (in vivo): (32.8%), Xerostomia (10.2% to 14.7%)
Sedated (in vivo): 33.1%), Sedated (45.2%), Somnolence (23% to 76.8%)
Serious side effect, Dermatologic (in vivo): Dermatologic: Stevens-Johnson syndrome
Somnolence (in vivo): 33.1%), Sedated (45.2%), Somnolence (23% to 76.8%)
Weight increase (in vivo): Increased appetite (7% to 32.7%), Weight increase (2.7% to 27.2%)
Xerostomia (in vivo): (32.8%), Xerostomia (10.2% to 14.7%)

Compound: Cn1c(CNc2ccc(C(=N)N)cc2)nc2cc(C(=O)N(CCC(=O)O)c3ccccn3)ccc21 [Dabigatran (Pradaxa)]
Bleeding (in vivo): prophylaxis, 10.5%; nonvalvular atrial fibrillation, 16.6%)
Bleeding, Major (in vivo): 0.3% to 1.4%; nonvalvular atrial fibrillation, 3.3%), Thrombosis
Gastroesophageal reflux disease (in vivo): disease (Atrial fibrillation, 5.5%), Gastrointestinal hemorrhage
Indigestion (in vivo): pulmonary embolism, 7.5%)
Myocardial infarction (in vivo): embolism, 0.32% to 0.66%; nonvalvular atrial fibrillation, 0.7%)

Compound: COCCOC(=O)C1=C(C)NC(C)=C(C(=O)OC(C)C)C1c1cccc([N+](=O)[O-])c1 (stereo not drawn) [Nimodipine (Nimotop)]
Congestive heart failure (in vivo): Cardiovascular: Congestive heart failure (less than 1%)
Diarrhea (in vivo): Gastrointestinal: Diarrhea (up to 4.2%), Nausea (0.6% to 1.4%)
Disseminated intravascular coagulation (in vivo): (less than 1%), Hematoma (less than 1%)
Gastrointestinal hemorrhage (in vivo): Gastrointestinal: Gastrointestinal hemorrhage (less than 1%)
Headache (in vivo): Neurologic: Headache (up to 4.1%)
Hematoma (in vivo): (less than 1%), Hematoma (less than 1%)
Hypotension (in vivo): Cardiovascular: Hypotension (up to 8.1%)
Nausea (in vivo): Gastrointestinal: Diarrhea (up to 4.2%), Nausea (0.6% to 1.4%)
Serious side effects, listed without incidence or only as rare (in vivo): Hematologic: Bleeding, Disseminated intravascular coagulation

Compound: COC(=O)[C@H](c1ccccc1Cl)N1CCc2sccc2C1 [Clopidogrel (Plavix ®)]
Agranulocytosis (in vivo): Hematologic: Agranulocytosis (Less than 1%), Aplastic anemia
Aplastic anemia (in vivo): (less then 1%), Bleeding, Major (0.8% to 3.7%), Pancytopenia
Bleeding, Major (in vivo): (less then 1%), Bleeding, Major (0.8% to 3.7%), Pancytopenia
Bleeding, Non-major (in vivo): Hematologic: Bleeding, Non-major (3.6% to 5.1%)
Gastrointestinal hemorrhage (in vivo): Gastrointestinal: Colitis, Gastrointestinal hemorrhage (2%; 2.7%
Intraocular hemorrhage (in vivo): Ophthalmic: Intraocular hemorrhage (0.05%)

Compound: CCOC(=O)[C@H](CCc1ccccc1)N[C@@H](C)C(=O)N1CCC[C@H]1C(=O)O [Enalapril (Vasotec)]
Angioedema (in vivo): Other: Angioedema (0.1% to 1%)
Dizziness (in vivo): Neurologic: Dizziness (4.3% to 7.9%)
Fatigue (in vivo): Other: Fatigue (3%)
Hyperkalemia (in vivo): Endocrine metabolic: Hyperkalemia (1% to 3.8%)
Hypotension (in vivo): Cardiovascular: Hypotension (0.9% to 6.7%)
Serum creatinine raised (in vivo): raised (0.2% (hypertension) to 20% (hypertension with renal artery

Compound: COc1ccc(C(CN(C)C)C2(O)CCCCC2)cc1 (stereo not drawn) [Venlafaxine (Effexor)]
Abnormal ejaculation (in vivo): Reproductive: Abnormal ejaculation (2.2% to 19%), Erectile
Asthenia (in vivo): Neurologic: Asthenia (8% to 19%), Dizziness (11% to 23.9%),
Dizziness (in vivo): Neurologic: Asthenia (8% to 19%), Dizziness (11% to 23.9%),
Dream disorder (in vivo): Dream disorder (3% to 7%), Headache (25% to 38%), Insomnia
Erectile dysfunction (in vivo): dysfunction (2.1% to 6%), Orgasm disorder (2% to 5%)
Feeling nervous (in vivo): Psychiatric: Feeling nervous (4% to 21.3%)
Headache (in vivo): Dream disorder (3% to 7%), Headache (25% to 38%), Insomnia
Hypertension (in vivo): Cardiovascular: Hypertension (3% to 13%)
Nausea (in vivo): 22%), Nausea (21% to 58%), Xerostomia (12% to 22%)
Orgasm disorder (in vivo): dysfunction (2.1% to 6%), Orgasm disorder (2% to 5%)
Seizure (in vivo): Neurologic: Seizure (0.3%)
Sweating symptom (in vivo): Dermatologic: Sweating symptom (6.7% to 25%)
Weight loss (in vivo): Endocrine metabolic: Weight loss (3% to 47%)
Xerostomia (in vivo): 22%), Nausea (21% to 58%), Xerostomia (12% to 22%)

Bronchospasm (IV): Respiratory: Bronchospasm (IV, 0.2%)
Dizziness (IV): 11.8%
Flushing (IV): 3.4%
Myocardial infarction (IV): 0.1%
Ventricular tachycardia (IV): tachycardia (IV, 0.2%)
Dizziness (oral): 13.6%
Headache (oral): 2.3%
Rash (oral): 2.3%
Compound: OCCN(CCO)c1nc(N2CCCCC2)c2nc(N(CCO)CCO)nc(N3CCCCC3)c2n1 [Dipyridamole]
Chest pain (IV): Cardiovascular: Chest pain (IV, up to 30%), Electrocardiogram
Abdominal discomfort (oral): Gastrointestinal: Abdominal discomfort (oral, 6.1%)

Compound: CC(C)NCC(O)COc1ccc(CCOCC2CC2)cc1 (stereo not drawn) [Betaxolol (Kerlone)]
Arthralgia (in vivo): Musculoskeletal: Arthralgia (3.1% to 5.2%), Chest pain (2.4% to
Bradyarrhythmia (in vivo): Cardiovascular: Bradyarrhythmia (5.8% to 8.1%)
Burning sensation in eye (in vivo): Ophthalmic: Burning sensation in eye (30%, ophthalmic)
Fatigue (in vivo): Other: Fatigue (2.9% to 9.7%)
Indigestion (in vivo): Gastrointestinal: Indigestion (3.9% to 4.7%), Nausea (1.6% to
Serious side effects, listed without incidence or only as rare (in vivo): Cardiovascular: Atrioventricular block, Myocardial infarction

Decreased hemoglobin (in vivo): Hematologic: Decreased hemoglobin (6%)
Headache (in vivo): Neurologic: Headache (up to 24%)
Hypotension (in vivo): 7%
Increased liver aminotransferase level (in vivo): ≤ 11%
Palpitations (in vivo): 5%
Compound: COc1ccccc1Oc1c(NS(=O)(=O)c2ccc(C(C)(C)C)cc2)nc(-c2ncccn2)nc1OCCO [Tracleer]
Decreased hemoglobin (Severe) (in vivo): Hematologic: Decreased hemoglobin (Severe) (3%)
Serious side effect, Other (listed without frequency): Other: Angioedema

Compound: OCCOCCN1CCN(C2=Nc3ccccc3Sc3ccccc32)CC1 [Seroquel (Quetiapine)]
Abdominal pain (in vivo): Gastrointestinal: Abdominal pain (3% to 7%), Constipation (2% to
Agitation (in vivo): Psychiatric: Agitation (6% to 20%)
Asthenia (in vivo): Neurologic: Asthenia (Up to 10%), Dizziness (8% to 19%),
Backache (in vivo): Musculoskeletal: Backache (3% to 5%)
Dizziness (in vivo): Neurologic: Asthenia (Up to 10%), Dizziness (8% to 19%),
Extrapyramidal disease (in vivo): Extrapyramidal disease (1.1% to 12.9%), Headache (17% to 21%),
Fatigue (in vivo): Other: Fatigue (3% to 14%), Pain (7%)
Headache (in vivo): Extrapyramidal disease (1.1% to 12.9%), Headache (17% to 21%),
Increased appetite (in vivo): 11%), Increased appetite (2% to 12%), Indigestion (2% to 7%),
Increased liver enzymes (in vivo): Hepatic: Increased liver enzymes (1% to 6%)
Indigestion (in vivo): 11%), Increased appetite (2% to 12%), Indigestion (2% to 7%),
Insomnia (in vivo): Insomnia (8% to 12%), Lethargy (1% to 5%), Somnolence (18% to
Lethargy (in vivo): Insomnia (8% to 12%), Lethargy (1% to 5%), Somnolence (18% to
Nasal congestion (in vivo): Respiratory: Nasal congestion (3% to 5%), Pharyngitis (4% to 6%)
Nausea (in vivo): Nausea (Pediatric, 6% to 10%), Vomiting (Pediatric, 7% to 8%),
Neutropenia (in vivo): Hematologic: Agranulocytosis, Leukopenia, Neutropenia (0.3% to
Orthostatic hypotension (in vivo): Orthostatic hypotension (Up to 7%), Tachycardia (Up to 6%)
Pain (in vivo): Other: Fatigue (3% to 14%), Pain (7%)
Pharyngitis (in vivo): Respiratory: Nasal congestion (3% to 5%), Pharyngitis (4% to 6%)
Prolonged QT interval (in vivo): Cardiovascular: Prolonged QT interval (0.1% to less than 1%),
Seizure (in vivo): Neurologic: Seizure (0.05% to 0.5%), Tardive dyskinesia
Serious side effect, Cardiovascular (in vivo): Sudden cardiac death, Syncope (0.3% to 1%)
Serious side effect, Endocrine metabolic (in vivo): Endocrine metabolic: Diabetic ketoacidosis
Serious side effect, Gastrointestinal (in vivo): Gastrointestinal: Pancreatitis
Serious side effect, Hematologic (in vivo): Hematologic: Agranulocytosis, Leukopenia, Neutropenia (0.3% to
Serious side effect, Immunologic (in vivo): Immunologic: Anaphylaxis
Serious side effect, Neurologic (in vivo): Neurologic: Seizure (0.05% to 0.5%), Tardive dyskinesia
Serious side effect, Other (in vivo): Other: Neuroleptic malignant syndrome
Serious side effect, Psychiatric (in vivo): Psychiatric: Suicidal thoughts
Serious side effect, Reproductive (in vivo): Reproductive: Priapism
Serum cholesterol raised (in vivo): Endocrine metabolic: Serum cholesterol raised (7% to 18%), Serum
Serum triglycerides raised (in vivo): triglycerides raised (8% to 28%), Weight gain (3% to 28%)
Somnolence (in vivo): Insomnia (8% to 12%), Lethargy (1% to 5%), Somnolence (18% to
Syncope (in vivo): Sudden cardiac death, Syncope (0.3% to 1%)
Tachycardia (in vivo): Orthostatic hypotension (Up to 7%), Tachycardia (Up to 6%)
Tremor (in vivo): 57%), Tremor (2% to 8%)
Vomiting (in vivo): Nausea (Pediatric, 6% to 10%), Vomiting (Pediatric, 7% to 8%),
Weight gain (in vivo): triglycerides raised (8% to 28%), Weight gain (3% to 28%)
Xerostomia (in vivo): Xerostomia (Adult, 9% to 44%; pediatric, 4% to 10%)

Compound: CC(NC(C)(C)C)C(=O)c1cccc(Cl)c1 (stereo not drawn) [Bupropion (Wellbutrin)]
Abdominal pain (in vivo): Gastrointestinal: Abdominal pain (2% to 9%), Constipation (5% to
Agitation (in vivo): Psychiatric: Agitation (2% to 9%)
Confusion (in vivo): Neurologic: Confusion (major depressive disorder, 8%), Dizziness
Dizziness (in vivo): (6% to 11%), Headache (25% to 34%), Insomnia (11% to 20%)
Headache (in vivo): (6% to 11%), Headache (25% to 34%), Insomnia (11% to 20%)
Hostile behavior (in vivo): Hallucinations, Hostile behavior (major depressive disorder, 6%),
Insomnia (in vivo): (6% to 11%), Headache (25% to 34%), Insomnia (11% to 20%)
Nasopharyngitis (in vivo): Respiratory: Nasopharyngitis (seasonal affective disorder, 13%),
Nausea (in vivo): 10%), Nausea (13% to 18%), Xerostomia (17% to 26%)
Pharyngitis (in vivo): Pharyngitis (major depressive disorder, 3% to 11%), Upper
Seizure (in vivo): Neurologic: Seizure (major depressive disorder, 0.1% to 0.4%)
Tachycardia (in vivo): Cardiovascular: Tachycardia (major depressive disorder, 11%)
Upper respiratory infection (in vivo): respiratory infection (seasonal affective disorder, 9%)
Weight gain (in vivo): Endocrine metabolic: Weight gain (2% to 9%), Weight loss (major
Weight loss (in vivo): depressive disorder, 14% to 19%)
Xerostomia (in vivo): 10%), Nausea (13% to 18%), Xerostomia (17% to 26%)
